What was measured:
Assay type in all cases: physicochemical
[1] = Apparent solubility of phosphatidylserine salts in ethanol (shake flask); conditions: for Solubility, mM phosphatidylserine: 100% ethanol, room temperature, 24 hours, N=3
Description: Apparent solubilities of phosphatidylserine salts in ethanol were determined by shake flask technique. Sodium and ammonium salts of phosphatidylserines in the powder form were obtained from Avanti Polar Lipids (Alabama, USA). Aliquots of phosphatidylserine salt powder were placed in 12×75 borosilicate glass tubes in triplicate. Three mL of 200 proof ethanol (catalog number E-7023, MilliporeSigma, USA) were added, the tubes were closed with polyethylene snap caps, agitated using vortex mixer for 10-15 s to obtain uniform suspensions, and placed in a horizontal position on a rocking platform at room temperature (20-22° C.) overnight. The ambient temperature at the end of incubation was 20.4-20.9° C. After 24 hours incubation, the suspensions were visually checked for the presence of a solid phase, allowed to settle under gravity, and the supernatant solutions were passed through a 0.2-μm PTFE syringe membrane filters. The first 0.5 ml of the filtrate was discarded, the next 1 ml was collected, and phosphatidylserine in the filtrates was quantified by phospholipid phosphate assay as follows: 20 μL aliquots of the filtrate were taken in triplicate into glass tubes, ethanol was evaporated in a stream of argon at 70° C., and the residue was digested in a mixture of 60 μL concentrated sulfuric acid and 20 μL 30% hydrogen peroxide for 10 min at 180-190° C. The digested samples were diluted with 1 mL of deionized water, 20 μL of 10% sodium sulfite was added to destroy any residual peroxide, and the samples were incubated on a boiling water bath for 15 min to hydrolyze any condensed phosphate species. The samples were chilled down to room temperature, mixed with 0.2 mL of 2% (w/w) ammonium molybdate solution and 20 μL of 10% (w/w) ascorbic acid solution, incubated on a boiling water bath for 10 min, and chilled down in a water bath at room temperature. The phosphate concentration was determined from the optical density of the formed blue phosphomolybdic acid at 825 nm using five-point standard curve from concurrently run standards prepared from the NIST-traceable commercial phosphate standard solution diluted to cover the range of 0-2 mM phosphate (coefficient of determination R^2>0.9999). Solubility of phosphatidylserine salts was expressed in molarity units of phosphatidylserine (Table 40). The data are average f SD (N=3).

[2] = Stability of ionizable cationic lipids under accelerated oxidation (H2O2/Fe(III)Cl, UHPLC-CAD), Example 29; conditions: for % of main lipid peak to To, 24 h.: individual lipids 0.5 mM; for % of main lipid peak to To, 24 h. / % of main lipid peak to To, 48 h. / % of main lipid peak to To, 72 h.: 1% H2O2/100 μM Fe(III)Cl, 37° C.; for % of main lipid peak to To, 48 h. / % of main lipid peak to To, 72 h.: individual lipids
Description: Ethanol (Sigma-Aldrich, cat #459836) stocks of 1 mM cationic lipids (KC3, KC3-OA, KC3-PA, KC3-C17 and KC3-C17(C8:1)) were prepared and stored at −20° C. Prior to the experiment, 75 μl of a lipid stock was mixed with 75 μl of ultra-pure water (Rx Biosciences, cat #P01-UPW02-1000) to make 0.5 mM of cationic lipids and 5 mM of linoleic acid respectively. A combined stock in water of 10% H2O2 (Sigma-Aldrich, cat #H1009) and 1 mM of Fe(III)Cl (Sigma-Aldrich, cat #372870) was freshly by prepared prior to the experiment. To make 1% final concentration of H2O2 and 100 μM Fe(III)Cl, 15 μl of 10% H2O2/1 mM Fe(III)Cl stock was added to 135 μl of individual lipids The liposomes and individual lipids were incubated with H2O2/Fe(III)Cl at 37° C. and then 5 μl from each sample was taken at different time points (0, 24, 48, 72 and 96 hours) and dissolved in 90 μl of MeOH for HPLC analysis. Degradation of the main lipid peak was analyzed using Thermo Scientific Vanquish Flex UHPLC occupied with Charged Aerosol Detector (CAD) and Phenomenex™ Kinetex C8 column (L=150 mm, D=2.1 mm, Particle Size=1.7 μm, 100 A).
The data are presented as a percentage of the main lipid peak measured at different time points relative to the lipid peak measured at time zero.

[3] = Oxidative stability of ICLs and liposomes under accelerated oxidation (H2O2/Fe(III)Cl, UHPLC-CAD), Example 18; conditions: ICL lipid suspensions, 1% H2O2/100 μM Fe(III)Cl, 37° C.
Description: Individual lipid stocks (10 mM) were prepared in ethanol and stored at −20° C. […] Liposomal formulations based on AKG-UO-1 and O-11769 ionizable cationic lipids (Table 12) were prepared by combining lipid mixtures of desired composition in 1 mL ethanol with 3 mL 6.25 mM sodium acetate, pH 5.0 at 6 mL/min on a NanoAssemblr (Precision Nanosystems). 3.6 mL of the mixture was retained, while the initial 0.35 mL of the mixture and final 0.05 mL were discarded. Ethanol was removed by buffer exchange into PBS, pH 7.4 by concentrating each liposome preparation using an Aminon-Ultra 4 centrifugal concentrator at 500 g for 10 min at 4° C. and diluting back to the original volume with PBS. This cycle was repeated multiple times until the ethanol concentration was <1%. Finally, liposomes were sterile filtered through 0.2 μm PES (Nalgene) syringe filters and size measured by a ZetaSizer (Malvern).
Aliquots of the liposomal formulations were stored at −80° C. and thawed before the experiment. A combined stock in water of 10% H2O2 (Sigma-Aldrich, cat #H1009) and 1 mM of Fe(III)Cl (Sigma-Aldrich, cat #372870) was freshly prepared prior to the treatment. To make 1% final concentration of H2O2 and 100 μM Fe(III)Cl, 10 μl of 10% H2O2/1 mM Fe(III)Cl stock was added to 90 μl of both liposomal formulations and individual lipids The liposomes and individual lipids were incubated with H2O2/Fe(III)Cl at 37° C. and then 5 μl from each sample was taken at different time points (0, 3, 24, 48 and 72 hours) and dissolved in 90 μl of MeOH for HPLC analysis. Degradation of the main lipid peak was analyzed using Thermo Scientific Vanquish Flex UHPLC occupied with Charged Aerosol Detector (CAD) and Thermo Scientific Accucore™ C18+ UHPLC column (L=50 mm, D=2.1 mm, Particle Size=1.5 μm).
The data are presented as a percentage of the main lipid pea measure at different time points relative to the lipid peak measured at time zero.

CCCCCCCCCCCCCCCC(=O)OC[C@H](COP(=O)(O)OC[C@H](N)C(=O)O)OC(=O)CCCCCCCCCCCCCCC.N [DPPS ammonium]
Solubility, mM phosphatidylserine [1]: 0.865 ± 0.060 mM | ethanol solubility ([1]; vs DSPS ammonium and the sodium salts): several-fold higher ethanol solubility

CCCCCCCCCCCCCCCC(=O)OC[C@H](COP(=O)(O)OC[C@H](N)C(=O)[O-])OC(=O)CCCCCCCCCCCCCCC.[Na+] [DPPS sodium]
Solubility, mM phosphatidylserine [1]: 0.201 ± 0.004 mM

CCCCCCCCCCCCCCCCCC(=O)OC[C@H](COP(=O)(O)OC[C@H](N)C(=O)O)OC(=O)CCCCCCCCCCCCCCCCC.N [DSPS ammonium]
Solubility, mM phosphatidylserine [1]: 0.034 ± 0.004 mM

CCCCCCCCCCCCCCCCCC(=O)OC[C@H](COP(=O)(O)OC[C@H](N)C(=O)[O-])OC(=O)CCCCCCCCCCCCCCCCC.[Na+] [DSPS sodium]
Solubility, mM phosphatidylserine [1]: 0.111 ± 0.009 mM

CCCCC/C=C\C/C=C\CCCCCCCCC1(CCCCCCCC/C=C\C/C=C\CCCCC)OCC(CCCN(C)C)O1 (stereo not drawn) [KC3, reference compound]
% of main lipid peak to To, 24 h. [2]: 11.2 ± 1.0% | % of main lipid peak to To, 48 h. [2]: 10.5 ± 0.5% | % of main lipid peak to To, 72 h. [2]: 0 ± 0% | degradation under forced oxidation with H2O2 ([2]; relative to other cationic lipids, FIG. 18): fastest degradation

CCCCCCCC/C=C\CCCCCCCC1(CCCCCCC/C=C\CCCCCCCC)OC[C@H](CCCN(C)C)O1 [KC3-17 (C8:1), 3-((S)-2,2-di((Z)-heptadec-8-en-1-yl)-1,3-dioxolan-4-yl)-N,N-dimethylpropan-1-amine]
% of main lipid peak to To, 24 h. [2]: 66.1 ± 0.6% | % of main lipid peak to To, 48 h. [2]: 58.4 ± 1.5% | % of main lipid peak to To, 72 h. [2]: 45.9 ± 4.7%

CCCCCCCCCCCCCCCCCC1(CCCCCCCCCCCCCCCCC)OC[C@H](CCCN(C)C)O1 [KC3-17, (S)-3-(2,2-diheptadecyl-1,3-dioxolan-4-yl)-N,N-dimethylpropan-1-amine]
% of main lipid peak to To, 24 h. [2]: 92.9 ± 0.3% | % of main lipid peak to To, 48 h. [2]: 91.8 ± 1.2% | % of main lipid peak to To, 72 h. [2]: 90.2 ± 1.2%

CCCCCCCC/C=C\CCCCCCCCC1(CCCCCCCC/C=C\CCCCCCCC)OC[C@H](CCCN(C)C)O1 [KC3-OA, 3-((S)-2,2-di((Z)-octadec-9-en-1-yl)-1,3-dioxolan-4-yl)-N,N-dimethylpropan-1-amine]
% of main lipid peak to To, 24 h. [2]: 88.9 ± 0.5% | % of main lipid peak to To, 48 h. [2]: 84.6 ± 0.9% | % of main lipid peak to To, 72 h. [2]: 79.0 ± 0.1%

CCCCCC/C=C\CCCCCCCCC1(CCCCCCCC/C=C\CCCCCC)OC[C@H](CCCN(C)C)O1 [KC3-PA, 3-((S)-2,2-di((Z)-hexadec-9-en-1-yl)-1,3-dioxolan-4-yl)-N,N-dimethylpropan-1-amine]
% of main lipid peak to To, 24 h. [2]: 62.7 ± 0.1% | % of main lipid peak to To, 48 h. [2]: 59.2 ± 0.8% | % of main lipid peak to To, 72 h. [2]: 60.2 ± 0.6%

CCCCC/C=C\CCCC/C=C\CCCCC(=O)OC[C@H](CCN(C)CCO)OC(=O)CCCC/C=C\CCCC/C=C\CCCCC [UO-6]
% of parent lipid peak at time 0, 24 h [3]: 58 ± 0.8% | % of parent lipid peak at time 0, 48 h [3]: 32 ± 1.3% | % of parent lipid peak at time 0, 72 h [3]: 22 ± 1.8%

CCCCC/C=C\CCCC/C=C\CCCCC(=O)OC[C@H](CCCN(C)C)OC(=O)CCCC/C=C\CCCC/C=C\CCCCC [UO-7]
% of parent lipid peak at time 0, 24 h [3]: 80 ± 1.7% | % of parent lipid peak at time 0, 48 h [3]: 71 ± 0.8% | % of parent lipid peak at time 0, 72 h [3]: 62 ± 1.0%

Source: patent US12064479B2, “Lipid nanoparticles for delivery of nucleic acids and methods of use thereof” (Akagera Medicines, Inc., priority 2022, dated 2024)
